{"source": "patent US20200390767A1", "about": "“Formulations of 4-(7-Hydroxy-2-isopropyl-4-oxo-4H-quinazolin-3-yl)-benzonitrile” (NOVARTIS AG, priority 2019, published 2020)", "key": {"[1]": {"test_system": "postoperative ocular pain in patients undergoing photorefractive keratectomy (PRK) surgery", "assay": "PRK clinical study, Ocular Pain Assessment Survey (OPAS)", "format": "in vivo, human", "text": "The Ocular Pain Assessment Survey (OPAS) is a quantitative, multidimensional questionnaire, specifically designed for assessment of corneal and ocular surface pain and Quality of Life (QoL) changes. The OPAS assesses pain intensity, frequency of eye and non-eye pain, QoL changes, aggravating factors, associated factors, and symptomatic relief quantitative, allowing for monitoring of treatment responses. See Qazi et al., Ophthalmology July 123(7):1458-1468 (2016).\nThe OPAS is a validated instrument for quantifying and monitoring corneal and ocular surface pain and quality of life, developed in response to an identified need from a National Eye Institute Workshop in 2010. See Qazi et al., Ophthalmology July 123(7):1458-1468 (2016). The rating scale of the overall pain severity in the OPAS from Qazi et al. rated from 0 (no pain) to 10 (severe pain) or for frequency of symptoms from 0% (never) to 100% (all the time), as per the survey. The patients were asked to fill out the OPAS survey/questionnaire at Day 2, Day 4 (at the end of treatment period with study drug) and Day 8. Statistical analysis of OPAS results was not performed."}, "TRPV1 receptor": {"molecular_target": "TRPV1 receptor (Homo sapiens, UniProt Q8NER1)", "sequence (Q8NER1 whole entry)": "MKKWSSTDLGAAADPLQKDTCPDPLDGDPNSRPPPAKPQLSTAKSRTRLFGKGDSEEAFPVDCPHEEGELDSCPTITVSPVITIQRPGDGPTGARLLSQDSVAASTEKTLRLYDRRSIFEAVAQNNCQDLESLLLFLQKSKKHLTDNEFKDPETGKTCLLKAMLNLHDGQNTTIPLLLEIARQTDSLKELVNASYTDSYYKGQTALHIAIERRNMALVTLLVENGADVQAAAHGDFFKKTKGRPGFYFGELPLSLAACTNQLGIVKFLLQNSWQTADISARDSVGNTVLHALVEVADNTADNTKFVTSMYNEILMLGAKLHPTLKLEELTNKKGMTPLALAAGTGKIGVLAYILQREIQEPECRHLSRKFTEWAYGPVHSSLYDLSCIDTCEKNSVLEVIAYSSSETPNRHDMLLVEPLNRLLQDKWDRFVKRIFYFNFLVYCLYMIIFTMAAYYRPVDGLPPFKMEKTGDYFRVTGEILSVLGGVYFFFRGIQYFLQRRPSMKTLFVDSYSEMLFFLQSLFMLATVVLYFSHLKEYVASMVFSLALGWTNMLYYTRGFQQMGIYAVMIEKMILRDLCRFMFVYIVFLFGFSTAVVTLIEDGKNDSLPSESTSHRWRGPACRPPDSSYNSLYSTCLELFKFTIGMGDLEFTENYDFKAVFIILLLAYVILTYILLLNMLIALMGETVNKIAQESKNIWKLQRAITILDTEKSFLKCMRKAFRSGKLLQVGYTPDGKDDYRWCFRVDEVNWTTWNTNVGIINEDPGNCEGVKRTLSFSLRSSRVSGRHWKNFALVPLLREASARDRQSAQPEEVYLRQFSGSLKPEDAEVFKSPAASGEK", "assay": "TRPV1 receptor activity", "format": "cell-based", "procedure": "“TRPV1 receptor” refers to the Transient Receptor Potential Vanilloid 1 that has been characterized through molecular cloning and pharmacology. See e.g., Caterina M J, et al., Nature 1997; 389:816-824. TRPV1 receptor activity is measured as described in WO2005/120510, hereby incorporated by reference in its entirety."}, "[2]": {"assay": "Pharmacokinetic study of exploratory formulations, single bilateral topical ocular dosing", "format": "in vivo", "conditions": "NZW rabbits", "procedure": "A pharmacokinetics study was conducted to determine the ocular uptake of compound I following single bilateral topical ocular dosing of male NZW rabbits with the four exploratory formulations provided in Table 2: FID 121522, FID 121511, FID 121512, FID 121513."}, "[3]": {"assay": "First in human study, plasma pharmacokinetics", "format": "in vivo", "text": "Accumulation of compound I at steady-state was minor (˜1.7-fold) following administration of 0.15%, 1.5% or 2.5% suspension 4 times daily and also minor (˜1.3-fold) following 2.5% 8 times daily for 7 days."}, "temperature sensitivity": {"test_system": "temperature sensitivity", "assay": "First in human study, hand immersion test at 49° C.", "format": "in vivo", "conditions": "water at 49° C., MAD part", "procedure": "Safety assessments: Safety assessments consisted of collecting all adverse events (AEs), serious adverse events (SAEs), including systemic and ocular adverse events, along with their severity and relationship to study drug. Systemic safety assessments included regular monitoring of hematology, blood chemistry and urinalysis performed at study center and regular assessments of physical examination, vital signs (systolic and diastolic blood pressure, pulse rate, and body temperature), ECG, pregnancy and assessments of fertility and hand immersion test at 49° C. during MAD part. Ocular safety assessments included early treatment diabetic retinopathy study (ETDRS) visual acuity, intraocular pressure, slit-lamp biomicroscopy, corneal staining and dilated fundus exam.\nFor the hand immersion test, all subjects in the treatment cohorts withdrew their hand from water at 49° C. at a time interval between 0 to ≤50 secs."}, "PRK surgery patients": {"test_system": "PRK surgery patients", "assay": "PRK clinical study, ocular safety assessments and vital signs", "format": "in vivo, human", "text": "Adverse events and serious adverse events included an assessment of both systemic and ocular assessments. Systemic safety assessments included regular assessments of height and weight, vital signs, reporting medication errors including misuse/abuse, pregnancy reporting and early phase safety monitoring. The misuse/abuse, pregnancy reporting and early phase safety monitoring were not assessed for the study. Ocular safety assessments included the following: • Best-corrected visual acuity (BCVA) and uncorrected visual acuity (UCVA): Was measured at each visit using an ETDRS visual acuity chart at 4 meters (13 feet) or 1 meter (for patients that cannot read the 4 meter chart). The BCVA scoring was done based on the number of correctly read letters plus 30. If visual acuity was so poor that the patient could not read any of the largest letters at 1 meter, count fingers and hand movement vision and light perception was tested. • Intraocular Pressure (TOP): IOP measurements were conducted with applanation tonometry or Tonopen. • Dilated fundus exam: The dilated fundus examination included ophthalmoscopic assessments of the vitreous, retina/macula/choroid, and optic nerve. Evaluations for retinal tear/detachment, retinal hemorrhage, vitreous hemorrhage density, vitreous haze grading and abnormal findings were done and scored according to grading criteria. • Ocular hyperemia: Conjunctival redness of the bulbar conjunctiva in each eye at the slit lamp according to the McMonnies redness scale was graded. […] By adjusting the calibrated slit beam width and height, the maximum horizontal (wound width) and vertical dimensions (wound height) of the surgical epithelial wound was estimated. The evaluation was performed until wound closure and report of wound size as 0 horizontal and 0 vertical dimensions. • Slit-lamp biomicroscopy: Ocular signs (eyelids/conjunctiva, cornea, lens, and iris/anterior chamber) was assessed in both eyes by slit lamp biomicroscopy according to the grading criteria. • Blink rate: A blink was defined as a bilateral paroxysmal closure of the eyelids (duration <1 second) in the absence of a provoking external stimulus. Each blink assessment lasted for 2 min (or as close to 2 minutes as possible with minimum time 1 minute) and the obtained blink rate was averaged to calculate blink rate in blinks/min. • Tear production (Schirmer's test without anesthesia): The test was performed without anesthetic in both eyes simultaneously. Tear secretion was measured in millimeters of the length of strip wetted by tears. […] The strip was wetted with 1 drop of sterile saline and flicked to remove excess saline. The patient blinked several times to ensure dispersion of the dye throughout the tear film prior to grading on a scale of 0-3 (0=Normal, No staining; 1=Mild, Superficial stippling micropunctate staining; 2=Moderate, Macropunctate staining with some coalescent areas and 3=Severe, Numerous coalescent macropunctate areas and/or patches) for each of 5 zones (central plus 4 quadrants)."}, "[4]": {"conditions": "across the scheduled time points"}}, "data": [{"smiles": "CC(C)c1nc2cc(O)ccc2c(=O)n1-c1ccc(C#N)cc1", "note": "[Compound I, 4-(7-hydroxy-2-isopropyl-4-oxo-4H-quinazolin-3-yl)-benzonitrile]", "values": [{"measurement": "OPAS eye pain intensity during the previous 24 hours (questions 4, 5, 6) versus Vehicle", "setting": "[1]; Day 2", "result": "all 3 answers numerically favored compound I"}, {"measurement": "OPAS how often eye pain with redness, burning, sensitivity to light, tearing (questions 22-25) versus Vehicle", "setting": "[1]; human, in vivo", "result": "all answers favored compound I"}, {"measurement": "IC50", "setting": "TRPV1 receptor", "result": 30, "unit": "nM"}, {"measurement": "exposure in cornea relative to aqueous humor and iris-ciliary body", "setting": "[2]", "result": "approximately 10 times"}, {"measurement": "Kp", "setting": "[2]; male, rabbit, cornea / plasma, topical, read-out: exposure in cornea relative to plasma", "result": "~500"}, {"measurement": "Accumulation at steady-state", "setting": "[3]; 0.15%, 1.5% or 2.5% suspension 4 times daily", "result": "~1.7", "unit": "fold"}, {"measurement": "Accumulation at steady-state", "setting": "[3]; 2.5%, 8 times daily for 7 days", "result": "~1.3", "unit": "fold"}, {"measurement": "increase in systemic exposure with dose", "setting": "[3]; increase in dose from 0.15% to 2.5%", "result": "less than dose-proportional increase"}, {"measurement": "hand immersion time versus vehicle", "setting": "temperature sensitivity", "result": "no meaningful change in immersion time"}, {"measurement": "Ocular hyperemia, grade 4 (McMonnies scale), versus Vehicle", "setting": "PRK surgery patients; Day 2 postoperatively (24 hours after PRK surgery), all quadrants", "result": "less grade 4 hyperemia"}, {"measurement": "Ocular hyperemia, grade 3 (McMonnies scale), versus Vehicle", "setting": "PRK surgery patients; Day 3 (48 hours post-operative)", "result": "less grade 3 hyperemia"}, {"measurement": "Dilated fundus exam", "setting": "PRK surgery patients; [4]", "result": "No abnormal findings"}, {"measurement": "Slit-lamp biomicroscopy: aqueous flare, inflammatory cell grade, iris/anterior chamber, lens", "setting": "PRK surgery patients; [4]", "result": "No abnormalities were observed"}, {"measurement": "Corneal staining versus Vehicle", "setting": "PRK surgery patients; baseline, Day 8, EOS visit", "result": "No clinical differences were observed"}, {"measurement": "vital sign parameters", "setting": "PRK surgery patients; during the study", "result": "within the normal range"}, {"measurement": "BCVA and UCVA versus Vehicle", "setting": "PRK surgery patients; throughout the study", "result": "did not result in any trend or obvious difference"}, {"measurement": "Blink rate versus Vehicle", "setting": "PRK surgery patients; throughout the study", "result": "no trend across the scheduled time points or obvious differences"}, {"measurement": "Intraocular pressure versus Vehicle", "setting": "PRK surgery patients; throughout the study", "result": "No trend across the scheduled time points or obvious differences"}]}]}
